Reference: patent EP4273147A1, “SUBSTITUTED SPIROLACTAMS, SALTS THEREOF AND THEIR USE AS HERBICIDALLY ACTIVE SUBSTANCES” (Bayer Aktiengesellschaft, priority 2022, dated 2023)

Legend:
[1] = test system: ALOMY; test: Herbicidal pre-emergence action, section C (Table C2); assay type: in vivo, Alopecurus myosuroides; settings: application rate 320 g/ha; visual grading after ca. 3 weeks
[2] = test system: AMARE; test: Herbicidal pre-emergence action, section C (Table C3); assay type: in vivo, Amaranthus retroflexus; settings: application rate 320 g/ha; visual grading after ca. 3 weeks
Excerpt: (§4) Seeds of mono- and dicotyledonous weed plants and crop plants were sown, in plastic or organic planting pots, in sandy loam and covered with soil. The compounds according to the invention, formulated in the form of wettable powders (WP) or as emulsifiable concentrates (EC), were applied to the surface of the covering soil as aqueous suspension or emulsion, with the addition of 0.5% of an additive, at an application rate of 600 1 of water/ha (converted). Following treatment, the pots were placed in a greenhouse and kept under optimum growth conditions for the test plants.

[3] = test system: DIGSA; test: Herbicidal pre-emergence action, section C (Table C5); assay type: in vivo, Digitaria sanguinalis; settings: application rate 80 g/ha; visual grading after ca. 3 weeks
[4] = test system: ECHCG; test: Herbicidal pre-emergence action, section C (Table C6); assay type: in vivo, Echinochloa crus-galli; settings: visual grading after ca. 3 weeks
[5] = test system: LOLRI; test: Herbicidal pre-emergence action, section C (Table C7); assay type: in vivo, Lolium rigidum; settings: application rate 320 g/ha; visual grading after ca. 3 weeks
Excerpt: as §4

[6] = test system: MATIN; test: Herbicidal pre-emergence action, section C (Table C8); assay type: in vivo, Matricaria inodora; settings: application rate 320 g/ha; visual grading after ca. 3 weeks
[7] = test system: POLCO; test: Herbicidal pre-emergence action, section C (Table C9); assay type: in vivo, Polygonum convolvulus; settings: application rate 80 g/ha; visual grading after ca. 3 weeks
Excerpt: as §4

[8] = test system: SETVI; test: Herbicidal pre-emergence action, section C (Table C10); assay type: in vivo, Setaria viridis; settings: application rate 80 g/ha; visual grading after ca. 3 weeks
[9] = test system: VERPE; test: Herbicidal pre-emergence action, section C (Table C11); assay type: in vivo, Veronica persica; settings: application rate 320 g/ha; visual grading after ca. 3 weeks
Excerpt: as §4

[10] = test system: VIOTR; test: Herbicidal pre-emergence action, section C (Table C12); assay type: in vivo, Viola tricolor; settings: visual grading after ca. 3 weeks
[11] = test system: ABUTH; test: Herbicidal post-emergence action, section E (Table E1); assay type: in vivo, Abutilon theophrasti; settings: application rate 320 g/ha; assessed visually after ca. 3 weeks
Excerpt: (§1) 2 to 3 weeks after sowing, the test plants were sprayed in the single-leaf stage.

[12] = test system: ALOMY; test: Herbicidal post-emergence action, section E (Table E2); assay type: in vivo, Alopecurus myosuroides; settings: application rate 320 g/ha; assessed visually after ca. 3 weeks
Excerpt: as §1

[13] = test system: ECHCG; test: Herbicidal post-emergence action, section E (Table E5); assay type: in vivo, Echinochloa crus-galli; settings: application rate 320 g/ha; assessed visually after ca. 3 weeks
Excerpt: as §1

[14] = test system: VERPE; test: Herbicidal post-emergence action, section E (Table E9); assay type: in vivo, Veronica persica; settings: application rate 320 g/ha; assessed visually after ca. 3 weeks
Excerpt: as §1

[15] = test system: VIOTR; test: Herbicidal post-emergence action, section E (Table E10); assay type: in vivo, Viola tricolor; settings: application rate 320 g/ha; assessed visually after ca. 3 weeks
Excerpt: as §1

[16] = test system: ZEAMX; test: Post-emergence effects on crop plants (Table F1); assay type: in vivo, Zea mays; settings: application rate 320 g/ha, crop plant ZEAMX
Excerpt: as §1

[17] = test system: TRZAS; test: Post-emergence effects on crop plants (Table F2); assay type: in vivo, Triticum aestivum; settings: crop plant TRZAS
Excerpt: as §1

[18] = test system: ORYZA; test: Post-emergence effects on crop plants (Table F3); assay type: in vivo, Oryza sativa; settings: application rate 80 g/ha, crop plant ORYZA
Excerpt: as §1

[19] = test system: GLXMA; test: Post-emergence effects on crop plants (Table F4); assay type: in vivo, Glycine max; settings: application rate 80 g/ha, crop plant GLXMA
Excerpt: as §1

[20] = test system: BRSNW; test: Post-emergence effects on crop plants (Table F5); assay type: in vivo, Brassica napus; settings: application rate 80 g/ha, crop plant BRSNW
Excerpt: as §1

[21] = test system: ABUTH; test: Herbicidal pre-emergence action (Table A1); assay type: in vivo, Abutilon theophrasti; settings: application rate 1280 g/ha; visual grading after ca. 3 weeks vs untreated controls (100% = plants have died off, 0% = as control plants)
Procedure, shortened: (§2)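 Seeds covered with soil after sowing in sandy loam; every pot carried one monocotyledonous and one dicotyledonous weed species as a double sowing.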

[22] = test system: ECHCG; test: Herbicidal pre-emergence action (Table A2); assay type: in vivo, Echinochloa crus-galli; settings: application rate 320 g/ha; visual grading after ca. 3 weeks
Procedure, shortened: as §2

[23] = test system: LOLRI; test: Herbicidal pre-emergence action (Table A3); assay type: in vivo, Lolium rigidum; settings: application rate 320 g/ha; visual grading after ca. 3 weeks
Procedure, shortened: as §2

[24] = test system: MATIN; test: Herbicidal pre-emergence action (Table A4); assay type: in vivo, Matricaria inodora; settings: application rate 320 g/ha; visual grading after ca. 3 weeks
Procedure, shortened: as §2

[25] = test system: SETVI; test: Herbicidal pre-emergence action (Table A5); assay type: in vivo, Setaria viridis; settings: application rate 320 g/ha; visual grading after ca. 3 weeks
Procedure, shortened: as §2

[26] = test system: STEME; test: Herbicidal pre-emergence action (Table A6); assay type: in vivo, Stellaria media; settings: application rate 320 g/ha; visual grading after ca. 3 weeks
Procedure, shortened: as §2

[27] = test system: POAAN; test: Herbicidal pre-emergence action (Table A7); assay type: in vivo, Poa annua; settings: application rate 320 g/ha; visual grading after ca. 3 weeks
Procedure, shortened: as §2

[28] = test system: ALOMY; test: Herbicidal pre-emergence action (Table A9); assay type: in vivo, Alopecurus myosuroides; settings: application rate 320 g/ha; visual grading after ca. 3 weeks
Procedure, shortened: as §2

[29] = test system: KCHSC; test: Herbicidal pre-emergence action (Table A10); assay type: in vivo, Kochia scoparia; settings: application rate 1280 g/ha; visual grading after ca. 3 weeks
Procedure, shortened: as §2

[30] = test system: VERPE; test: Herbicidal pre-emergence action (Table A11); assay type: in vivo, Veronica persica; settings: application rate 320 g/ha; visual grading after ca. 3 weeks
Procedure, shortened: as §2

[31] = test system: ABUTH; test: Herbicidal post-emergence action (Table B1); assay type: in vivo, Abutilon theophrasti; settings: application rate 1280 g/ha; treated at one-leaf stage; rated visually after about 3 weeks vs untreated controls (100% = plants have died, 0% = like control plants)
Procedure, shortened: (§3)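 Greenhouse post-emergence screen on potted weeds in sandy loam, treatment at one-leaf stage, visual % control scored ~3 weeks later against untreated plants.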

[32] = test system: ALOMY; test: Herbicidal post-emergence action (Table B2); assay type: in vivo, Alopecurus myosuroides; settings: application rate 1280 g/ha; rated visually after about 3 weeks
Procedure, shortened: as §3

[33] = test system: ECHCG; test: Herbicidal post-emergence action (Table B3); assay type: in vivo, Echinochloa crus-galli; settings: application rate 320 g/ha; rated visually after about 3 weeks
Procedure, shortened: as §3

[34] = test system: MATIN; test: Herbicidal post-emergence action (Table B6); assay type: in vivo, Matricaria inodora; settings: application rate 320 g/ha; rated visually after about 3 weeks
Procedure, shortened: as §3

[35] = test system: POAAN; test: Herbicidal post-emergence action (Table B7); assay type: in vivo, Poa annua; settings: application rate 320 g/ha
Procedure, shortened: as §3

[36] = test system: SETVI; test: Herbicidal post-emergence action (Table B8); assay type: in vivo, Setaria viridis; settings: application rate 1280 g/ha
Procedure, shortened: as §3

[37] = test system: STEME; test: Herbicidal post-emergence action (Table B9); assay type: in vivo, Stellaria media; settings: application rate 1280 g/ha
Procedure, shortened: as §3

[38] = test system: VERPE; test: Herbicidal post-emergence action (Table B10); assay type: in vivo, Veronica persica; settings: application rate 320 g/ha
Procedure, shortened: as §3

[39] = test system: ZEAMX; test: Pre-emergence effects on crop plants (Table D1); assay type: in vivo, Zea mays; settings: crop plant; application rate 80 g/ha; visual grading after ca. 3 weeks
[40] = test system: GLXMA; test: Pre-emergence effects on crop plants (Table D4); assay type: in vivo, Glycine max; settings: crop plant; application rate 80 g/ha; visual grading after ca. 3 weeks
[41] = test system: BRSNW; test: Pre-emergence effects on crop plants (Table D5); assay type: in vivo, Brassica napus; settings: crop plant; application rate 80 g/ha; visual grading after ca. 3 weeks
[42] = test system: LOLRI; test: Herbicidal post-emergence action, section E (Table E6); assay type: in vivo, Lolium rigidum; settings: application rate 320 g/ha; assessed visually after ca. 3 weeks
Excerpt: as §1

[43] = test system: SETVI; test: Herbicidal post-emergence action, section E (Table E8); assay type: in vivo, Setaria viridis; settings: application rate 320 g/ha; assessed visually after ca. 3 weeks
Excerpt: as §1

[44] = test system: ORYZA; test: Pre-emergence effects on crop plants (Table D3); settings: crop plant; application rate 80 g/ha; visual grading after ca. 3 weeks

In the case of `O=C1N(Cc2c(F)cccc2F)CCCC12CCCN(Cc1c(F)cccc1F)C2=O` (racemic) [I-006, 2,8-bis[(2,6-difluorophenyl)methyl]-2,8-diazaspiro[5.5]undecane-1,7-dione], the “pre-emergence activity against ALOMY” value [1] is reported as 100%, the “pre-emergence activity against AMARE” value [2] is reported as 90% and the “pre-emergence activity against DIGSA” value [3] is reported as 100%. The “pre-emergence activity against ECHCG” value ([4]; application rate 320 g/ha) was 100%, the “pre-emergence activity against LOLRI” value [5] was 100% and the “pre-emergence activity against MATIN” value [6] was 80%. For the same compound, the “pre-emergence activity against POLCO” value [7] was 100%, the “pre-emergence activity against SETVI” value [8] was 100% and the “pre-emergence activity against VERPE” value [9] was 90%. For the same compound, the “pre-emergence activity against VIOTR” value ([10]; application rate 38 g/ha (so in the source)) was 90%, the “post-emergence activity against ABUTH” value [11] was 80% and the “post-emergence activity against ALOMY” value [12] was 90%. The “post-emergence activity against ECHCG” value [13] was 80%, the “post-emergence activity against VERPE” value [14] was 80% and the “post-emergence activity against VIOTR” value [15] was 80%. The “post-emergence activity against ZEAMX” value [16] was 20%, the “post-emergence activity against TRZAS” value ([17]; application rate 320 g/ha) was 10% and the “post-emergence activity against ORYZA” value [18] was 10%. For the same compound, the “post-emergence activity against GLXMA” value [19] was 20% and the “post-emergence activity against BRSNW” value [20] was 20%.

In the case of `O=C1N(Cc2ccccc2F)CCCC12CCCN(Cc1cccc(F)c1F)C2=O` (racemic) [I-003], the “pre-emergence activity against ABUTH” value [21] is reported as 90%, the “pre-emergence activity against ECHCG” value [22] is reported as 100% and the “pre-emergence activity against LOLRI” value [23] is reported as 100%. The “pre-emergence activity against MATIN” value [24] was 90%, the “pre-emergence activity against SETVI” value [25] was 100% and the “pre-emergence activity against STEME” value [26] was 90%. For the same compound, the “pre-emergence activity against POAAN” value [27] was 100%, the “pre-emergence activity against ALOMY” value [28] was 90% and the “pre-emergence activity against KCHSC” value [29] was 90%. For the same compound, the “pre-emergence activity against VERPE” value [30] was 90%, the “post-emergence activity against ABUTH” value [31] was 90% and the “post-emergence activity against ALOMY” value [32] was 90%. The “post-emergence activity against ECHCG” value [33] was 90%, the “post-emergence activity against MATIN” value [34] was 90% and the “post-emergence activity against POAAN” value [35] was 100%. The “post-emergence activity against SETVI” value [36] was 90%, the “post-emergence activity against STEME” value [37] was 100% and the “post-emergence activity against VERPE” value [38] was 90%. For the same compound, the “pre-emergence activity against ALOMY” value [1] was 90%, the “pre-emergence activity against ECHCG” value ([4]; application rate 80 g/ha) was 100% and the “pre-emergence activity against LOLRI” value [5] was 90%. The “pre-emergence activity against MATIN” value [6] was 90%, the “pre-emergence activity against SETVI” value [8] was 100% and the “pre-emergence activity against VIOTR” value ([10]; application rate 320 g/ha) was 90%. For the same compound, the “pre-emergence activity against ZEAMX” value [39] was 10%, the “pre-emergence activity against GLXMA” value [40] was 10% and the “pre-emergence activity against BRSNW” value [41] was 10%. For the same compound, the “post-emergence activity against ALOMY” value [12] was 90%, the “post-emergence activity against ECHCG” value [13] was 80% and the “post-emergence activity against LOLRI” value [42] was 80%. For the same compound, the “post-emergence activity against SETVI” value [43] was 80%, the “post-emergence activity against VERPE” value [14] was 80% and the “post-emergence activity against ZEAMX” value [16] was 20%. The “post-emergence activity against TRZAS” value ([17]; application rate 80 g/ha) was 0%, the “post-emergence activity against ORYZA” value [18] was 20% and the “post-emergence activity against GLXMA” value [19] was 20%. The “post-emergence activity against BRSNW” value [20] was 20% and the “pre-emergence activity against ORYZA” value [44] was 20%.
